{
  "source": "patent US8604042B2",
  "about": "“Bi-aryl meta-pyrimidine inhibitors of kinases” (TargeGen, Inc., priority 2005, dated 2013)",
  "note": "Structures can show the parent of a compound that is named as a salt.",
  "data": [
    {"biological_target": "T1, recombinant JAK2 (Homo sapiens, UniProt O60674)", "T1 construct": "purchased Upstate Cell Signaling Solutions", "T1 sequence (O60674 808-1132 limits assumed)": "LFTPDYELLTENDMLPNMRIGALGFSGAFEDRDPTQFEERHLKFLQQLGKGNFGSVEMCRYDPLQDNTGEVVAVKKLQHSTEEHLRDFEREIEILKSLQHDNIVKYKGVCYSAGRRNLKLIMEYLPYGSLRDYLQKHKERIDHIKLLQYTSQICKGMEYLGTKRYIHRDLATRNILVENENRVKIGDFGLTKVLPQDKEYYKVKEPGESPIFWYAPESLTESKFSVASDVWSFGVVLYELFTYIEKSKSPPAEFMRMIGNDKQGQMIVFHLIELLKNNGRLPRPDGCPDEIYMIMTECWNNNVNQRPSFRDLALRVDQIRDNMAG", "assay": "IC50 value determinations for Jak2 kinase, luminescence-based kinase assay (Kinase-Glo)", "format": "biochemical", "conditions": "Table 1", "units": {"IC50": "nM"}, "protocol": "The IC50 values for compounds were determined using a luminescence-based kinase assay with recombinant JAK2 obtained from Upstate Cell Signaling Solutions. In white, flat bottom, 96-well plates (Nunc) parallel assays were run at room temperature at a final volume of 50 μL.\nTwo control reactions were also ran: one reaction containing no compound and the second containing neither inhibitor nor peptide substrate. IC50 values were derived from experimental data using the non-linear curve fitting capabilities of Prism (Version 4; GraphPad Software).", "values": [
      {"smiles": "Cc1cnc(Nc2ccc(N3CCN(C)CC3)cc2)nc1Nc1cccc(C(N)=O)c1", "note": "[3-{5-Methyl-2-[4-(4-methyl-piperazin-1-yl)-phenylamino]-pyrimidin-4-ylamino}-benzamide]", "IC50": 23},
      {"smiles": "Cc1cnc(Nc2ccc(N3CCN(C)CC3)cc2)nc1Nc1ccc(C)c2[nH]ccc12", "note": "[5-methyl-N4-(7-methyl-1H-indol-4-yl)-N2-(4-(4-methylpiperazin-1-yl)phenyl)pyrimidine-2,4-diamine Hydrochloride]", "IC50": 3.84},
      {"smiles": "Cc1cnc(Nc2ccc(OCCN3CCCC3)cc2)nc1Nc1cccc(O)c1", "note": "[3-(2-(4-(2-(pyrrolidin-1-yl)ethoxy)phenylamino)-5-methylpyrimidin-4-ylamino)phenol Hydrochloride]", "IC50": 203},
      {"smiles": "Cc1cnc(Nc2ccc(N3CCN(C)CC3)cc2)nc1Nc1cccc(S(=O)(=O)N2CCCCC2C)c1", "note": "(centres unmarked) [5-Methyl-N2-[4-(4-methyl-piperazin-1-yl)-phenyl]-N4-[3-(2-methyl-piperidine-1-sulfony)-phenyl]-pyrimidine-2,4-diamine Hydrochloride]", "IC50": 33.5},
      {"smiles": "Cc1cnc(Nc2ccc(OCCN3CCCC3)cc2)nc1Nc1cccc(Cl)c1", "note": "[N4-(3-Chloro-phenyl)-5-methyl-N2-[4-(2-pyrrolidin-1-yl-ethoxy)-phenyl]-pyrimidine-2,4-diamine]", "IC50": 20.8},
      {"smiles": "Cc1cnc(Nc2ccc(N3CCN(C)CC3)cc2)nc1Nc1cc(C)c(Cl)c(C)c1", "note": "[drawing 361, N4-(4-chloro-3,5-dimethylphenyl)-5-methyl-N2-(4-(4-methylpiperazin-1-yl)phenyi)pyrimidine-2,4-diamine Hydrochloride]", "IC50": 38},
      {"smiles": "Cc1cnc(Nc2ccc(N3CCN(C)CC3)cc2)nc1Nc1cccc(S(N)(=O)=O)c1", "note": "[3-{5-Methyl-2-[4-(4-methyl-piperazin-1-yl)-phenylamino]-pyrimidin-4-ylamino}-benzenesulfonamide]", "IC50": 13.6},
      {"smiles": "Cc1cnc(Nc2ccc(OCCN3CCCC3)cc2)nc1Nc1ccc(Cl)c(F)c1", "note": "[N4-(4-Chloro-3-fluoro-phenyl)-5-methyl-N2-[4-(2-pyrrolidin-1-yl-ethoxy)-phenyl]-pyrimidine-2,4-diamine]", "IC50": 40.1},
      {"smiles": "Cc1cnc(Nc2ccc(-n3ccnc3)cc2)nc1Nc1cccc(S(=O)(=O)NC(C)(C)C)c1", "note": "[N-tert-Butyl-3-[2-(4-imidazol-1-yl-phenylamino)-5-methyl-pyrimidin-4-ylamino]-benzenesulfonamide]", "IC50": 12.3},
      {"smiles": "COc1cc(Nc2nc(Nc3ccc(OCCN4CCCC4)cc3)ncc2C#N)c(Cl)cc1Cl", "note": "[drawing 298, 4-(2,4-Dichloro-5-methoxy-phenylamino)-2-[4-(2-pyrrolidin-1-yl-ethoxy)-phenylamino]-pyrimidine-5-carbonitrile]", "IC50": 6240},
      {"smiles": "COc1cc(Nc2nc(Nc3cccc(OCCN4CCCC4)c3)ncc2C)c(Cl)cc1Cl", "note": "[drawing 300, N4-(2,4-Dichloro-5-methoxy-phenyl)-5-methyl-N2-[3-(2-pyrrolidin-1-yl-ethoxy)-phenyl]-pyrimidine-2,4-diamine]", "IC50": 2040},
      {"smiles": "Cc1cnc(Nc2ccc(OCCN3CCCC3)cc2)nc1Nc1ccccc1", "note": "[5-Methyl-N4-phenyl-N2-[4-(2-pyrrolidin-1-yl-ethoxy)-phenyl]-pyrimidine-2,4-diamine]", "IC50": 16.7},
      {"smiles": "COc1cc(Nc2nc(Nc3ccc(N4CCNCC4)cc3)ncc2C)ccc1Cl", "note": "[drawing 348, N4-(4-Chloro-3-methoxy-phenyl)-5-methyl-N2-(4-piperazin-1-yl-phenyl)-pyrimidine-2,4-diamine]", "IC50": 6.15},
      {"smiles": "Cc1cnc(Nc2ccc(N3CCN(C)CC3)cc2)nc1Nc1cccc(C(F)(F)F)c1C", "note": "[N4-(3-(trifluoromethyl)-2-methylphenyl)-5-methyl-N2-(4-(4-methylpiperazin-1-yl)phenyl)pyrimidine-2,4-diamine hydrochloride]", "IC50": 87.1},
      {"smiles": "Cc1cnc(Nc2ccc(N3CCN(C)CC3)cc2)nc1Nc1cccc2c1OCO2", "note": "[N4-Benzo[1,3]dioxol-4-yl-5-methyl-N2-[4-(4-methyl-piperazin-1-yl)-phenyl]-pyrimidine-2,4-diamine]", "IC50": 14.2},
      {"smiles": "Cc1cnc(Nc2ccc(OC3CCNCC3)cc2)nc1Nc1cccc(O)c1", "note": "[3-(2-(4-(piperidin-4-yloxy)phenylamino)-5-methylpyrimidin-4-ylamino)phenol]", "IC50": 51.9},
      {"smiles": "Cc1cnc(Nc2cccc(CN3CCOCC3)c2)nc1Nc1cccc(S(=O)(=O)NC(C)(C)C)c1", "note": "[N-tert-Butyl-3-(5-methyl-2-(3-morpholin-4-ylmethyl-phenylamino)-pyrimidin-4-ylamino]-benzenesulfonamide]", "IC50": 7.06},
      {"smiles": "COc1cc(Nc2nc(Nc3ccc(OCCO)cc3)ncc2C)ccc1Cl", "note": "[2-{4-[4-(4-Chloro-3-methoxy-phenylamino)-5-methyl-pyrimidin-2-ylamino]-phenoxy}-ethanol]", "IC50": 9.14},
      {"smiles": "Cc1cnc(Nc2ccc(C(=O)N3CCCC3)cc2)nc1Nc1cccc(S(=O)(=O)NC(C)(C)C)c1", "note": "[N-tert-Butyl-3-{5-methyl-2-[4-(pyrrolidine-1-carbonyl)-phenylamino]-pyrimidin-4-ylamino}-benzenesulfonamide]", "IC50": 33.5},
      {"smiles": "c1ccc(Cc2ccnc(Nc3ccc(OCCN4CCCC4)cc3)n2)cc1", "note": "[N-(4-(2-(pyrrolidin-1-yl)ethoxy)phenyl)-4-benzylpyrimidin-2-amine]", "IC50": 702},
      {"smiles": "Cc1cnc(Nc2ccc(-n3cccn3)cc2)nc1Nc1cccc(S(=O)(=O)NC(C)(C)C)c1", "note": "[N-tert-Butyl-3-[5-methyl-2-(4-pyrazol-1-yl-phenylamino)-pyrimidin-4-ylamino]-benzenesulfonamide]", "IC50": 19},
      {"smiles": "COC(=O)c1cc(Nc2ncc(C)c(Nc3cccc4c3OCO4)n2)ccc1OCCN1CCCC1", "note": "[5-[4-(Benzo[1,3]dioxol-4-ylamino)-5-methyl-pyrimidin-2-ylamino]-2-(2-pyrrolidin-1-yl-ethoxy)-benzoic acid methyl ester]", "IC50": 16.4},
      {"smiles": "Cc1cnc(Nc2ccc(Cn3cncn3)cc2)nc1Nc1cccc(S(=O)(=O)NC(C)(C)C)c1", "note": "[N-tert-Butyl-3-[5-methyl-2-(4-[1,2,4]triazol-1-ylmethyl-phenylamino)-pyrimidin-4-ylamino]-benzenesulfonamide]", "IC50": 35.4},
      {"smiles": "COc1cc(Nc2nc(Nc3ccc(CN4CCOCC4)cc3)ncc2C)ccc1Cl", "note": "[N4-(4-Chloro-3-methoxy-phenyl)-5-methyl-N2-(4-morpholin-4-ylmethyl-phenyl)-pyrimidine-2,4-diamine trifluoroacetate]", "IC50": 13.3},
      {"smiles": "Cc1cnc(Nc2ccc(OC3CCNCC3)cc2)nc1Nc1cccc2[nH]ccc12", "note": "[N4-(1H-indol-4-yl)-5-methyl-N2-(4-(piperidin-4-yloxy)phenyl)pyrimidine-2,4-diamine trifluoroacetic acid salt]", "IC50": 4.27},
      {"smiles": "COc1cc(Nc2nc(Nc3cccc(CN4CCNCC4)c3)ncc2C)ccc1Cl", "note": "[N4-(4-Chloro-3-methoxy-phenyl)-5-methyl-N2-(3-piperazin-1-ylmethyl-phenyl)-pyrimidine-2,4-diamine]", "IC50": 15.8},
      {"smiles": "Cc1cnc(Nc2ccc(N3CCN(C)CC3)cc2)nc1Nc1cccc(NC(=O)Nc2cccc(C(F)(F)F)c2)c1", "note": "[1-(3-{5-Methyl-2-[4-(4-methyl-piperazin-1-yl)-phenylamino]-pyrimidin-4-ylamino}-phenyl)-3-(3-trifluoromethyl-phenyl)-urea]", "IC50": 126},
      {"smiles": "Cc1cnc(Nc2ccc(CN3CCOCC3)cc2)nc1Nc1cccc(S(=O)(=O)NC(C)(C)C)c1", "note": "[N-tert-Butyl-3-[5-methyl-2-(4-morpholin-4-ylmethyl-phenylamino)-pyrimidin-4-ylamino]-benzenesulfonamide]", "IC50": 12.5},
      {"smiles": "Cc1cnc(Nc2ccc(N3CCNCC3)nc2)nc1Nc1cccc(S(=O)(=O)NC(C)(C)C)c1", "note": "[N-tert-Butyl-3-[5-methyl-2-(6-piperazin-1-yl-pyridin-3-ylamino)-pyrimidin-4-ylamino]-benzenesulfonamide]", "IC50": 10},
      {"smiles": "Cc1cnc(Nc2ccc(OCCN3CCCC3)cc2)nc1Nc1ccc2sccc2c1", "note": "[N4-Benzo[b]thiophen-5-yl-5-methyl-N2-[4-(2-pyrrolidin-1-yl-ethoxy)-phenyl]-pyrimidine-2,4-diamine]", "IC50": 28.5},
      {"smiles": "COc1cc(Nc2nc(Nc3ccc(CN4CCN(C)CC4)cc3)ncc2C)ccc1Cl", "note": "[N4-(4-Chloro-3-methoxy-phenyl)-5-methyl-N2-[4-(4-methyl-piperazin-1-ylmethyl)-phenyl]-pyrimidine-2,4-diamine]", "IC50": 12},
      {"smiles": "Cc1cnc(Nc2ccc(CN3CCNCC3)cc2)nc1Nc1cccc(S(=O)(=O)NC(C)(C)C)c1", "note": "[N-tert-butyl-3-[(5-methyl-2-{[4-(piperazin-1-ylmethyl)phenyl]amino}pyrimidin-4-yl)amino]benzenesulfonamide]", "IC50": 4.6},
      {"smiles": "Cc1cnc(Nc2ccc(OCCO)cc2)nc1Nc1cccc(S(=O)(=O)NC(C)(C)C)c1", "note": "[N-tert-Butyl-3-{2-[4-(2-hydroxy-ethoxy)-phenylamino]-5-methyl-pyrimidin-4-ylamino)-benzenesulfonamide]", "IC50": 20.3},
      {"smiles": "Cc1cnc(Nc2ccc(OCCN3CCCC3)cc2)nc1Nc1ccc(C)c2[nH]ccc12", "note": "[N2-(4-(2-(pyrrolidin-1-yl)ethoxy)phenyl)-5-methyl-N4-(7-methyl-1H-indol-4-yl)pyrimidine-2,4-diamine Hydrochloride]", "IC50": 6.98},
      {"smiles": "Cc1cnc(Nc2ccc(N3CCN(C)CC3)cc2)nc1Nc1cccc(S(=O)(=O)NC2CCCC2)c1", "note": "[N-Cyclopentyl3-{5-Methyl-2-[4-(4-methyl-piperazin-1-yl)-phenylamino]-pyrimidine-4-ylamino}-benzenesulfonamide Hydrochloride]", "IC50": 19.8},
      {"smiles": "Cc1cnc(Nc2ccc(C[N+]3([O-])CCOCC3)cc2)nc1Nc1cccc(S(=O)(=O)NC(C)(C)C)c1", "note": "[N-tert-Butyl-3-{5-methyl-2-[4-(4-oxy-morpholin-4-ylmethyl)-phenylamino]-pyrimidin-4-ylamino}-benzenesulfonamide]", "IC50": 48.6},
      {"smiles": "COc1ccc(Nc2ccnc(Nc3ccc(OCCN4CCCC4)cc3)n2)cc1", "note": "[N4-(4-Methoxy-phenyl)-N2-[4-(2-pyrrolidin-1-yl-ethoxy)-phenyl]-pyrimidine-2,4-diamine trifluoroacetate]", "IC50": 4330}
    ]},
    {"biological_target": "T1, recombinant JAK2", "assay": "IC50 value determinations for Jak2 kinase, luminescence-based kinase assay (Kinase-Glo)", "format": "biochemical", "conditions": "Table 5, Initial Screening Hits for JAK2", "units": {"IC50": "nM"}, "values": [
      {"smiles": "COc1cc(Nc2nc(Nc3cccc(OCCN4CCCC4)c3)ncc2C)c(Cl)cc1Cl", "note": "[Compound 3]", "IC50": 2040}
    ]},
    {"biological_target": "T1, recombinant JAK2", "assay": "IC50 value determinations for Jak2 kinase, luminescence-based kinase assay (Kinase-Glo)", "format": "biochemical", "conditions": "Table 7, SAR for the P3 region", "units": {"IC50": "nM"}, "values": [
      {"smiles": "Cc1nc(Nc2ccccc2)nc(Nc2cccc3c2OCO3)c1C", "note": "[Compound 8]", "IC50": "> 10000"},
      {"smiles": "COc1cc(Nc2nc(Nc3cccc(OCCN4CCCC4)c3)ncc2C)c(Cl)cc1Cl", "note": "[Compound 3]", "IC50": 2040}
    ]},
    {"biological_target": "T1, recombinant JAK2", "assay": "IC50 value determinations for Jak2 kinase, luminescence-based kinase assay (Kinase-Glo)", "format": "biochemical", "conditions": "Table 9, SAR of the P2/P1 region", "units": {"IC50": "nM"}, "values": [
      {"smiles": "Cc1cnc(Nc2cccc(S(=O)(=O)NC(C)(C)C)c2)nc1Nc1cccc(S(=O)(=O)NC(C)(C)C)c1", "note": "[Compound 58]", "IC50": 707}
    ]}
  ]
}
